Data: US20250154112A1, “A PREPARATION OF QUINAZOLINEDIONES AND USE THEREOF” (COUNCIL OF SCIENTIFIC AND INDUSTRIAL RESEARCH AN INDIAN …, priority 2021, published 2025)
Converted amounts (≈) assume the structure as drawn.

Assays:
[1] = test system: ATGL; assay: Western blot of ATGL level in HepG2 cells after compound treatment; format: cell-based; conditions: 24 hours; for ATGL level (Western Blot): 50 nM to 5 μM dose dependent, with respect to control; for induction of ATGL (Western Blot): 5 μM
Protocol: (§1) HepG2 cells were treated with the compounds 5, 8, 11, 59, 62, 91, 94 (50 nM, 100 nM, 200 nM, 500 nM, 1 μM and 5 μM for dose dependent assays) for 24 hours. After removing media from the cells, the wells were washed with 1×PBS twice to remove any remnant media. Cells were then lysed in lysis buffer containing 50 mM Tris-HCl (pH 7.4), 100 mM NaCl, 1 mM EDTA, 1 mM EGTA, 1% Triton X-100 and protease inhibitor cocktail (Millipore, Billierica, MA, USA). Following centrifugation at 20,000 g for 20 minutes, the protein solution was extracted from the cells. Protein was estimated using Bradford assay. Bradford's reagent (BioRad) was diluted in 1:4 ratio in double distilled water. 2 μl of protein sample was added to 100 μl of the reagent and absorbance was measured at 595 nm. 30 μg of protein was diluted in lysis buffer. 1X loading buffer diluted from 5X stock containing 250 mM Tris-HCl (pH 6.8), 10% SDS, 50% glycerol, 0.1% bromophenol Blue and 10% β-mercaptoethanol was added. The protein samples were then heated at 95° C. for 10 minutes, cooled and centrifuged at 12,000 g for 2 minutes prior to loading.
(§2) For western blotting, the proteins were resolved in 10% SDS PAGE (discontinuous buffer system). 1X running buffer containing SDS, Tris Base and Glycine was used to run the gel at 80V for approximately 2 hours. Transfer was done using PVDF membrane (Millipore) having pore size of 0.45 μm. 1X transfer buffer containing Tris-Base, Glycine and 20% methanol was used for wet transfer. Transfer was done at 90V for 3 hours. Following transfer, the PVDF membrane containing the proteins were washed in 1×PBST comprising of 1×PBS and 1% Tween 20 (Sigma Aldrich). The membrane was then incubated for 1 hour at room temperature in 5% skim milk powder to block the non-specific sites. Following multiple washes with 1×PBST to wash away any remaining blocking buffer, the required primary antibody (COP1 [BethylLaboraties], ATGL [Cell Signalling Technology] or Actin[Cell Signalling Technology]) prepared with 1×PBST, 1% Bovine Serum Albumin and 0.04% Sodium Azide was added to the membrane and incubated overnight at 4° C. The next day, the membrane was again washed multiple times with 1×PBST to remove any unbound primary antibody. The membrane was then incubated with goat anti-rabbit secondary antibody (Genei) for 1 hour at room temperature and washed again for multiple times with 1×PBST. The membrane was then developed using Clarity™ ECL Western Blotting Substrate (BioRad) and viewed in ChemiDoc (BioRad).
as §1, with “62, 65,” for “62,”, “at” for “(50 nM, 100 nM, 200 nM, 500 nM, 1 μM and”, “μM” for “μM for dose dependent assays)”, “cocktail 1” for “cocktail”

[2] = molecular target: T1, COP1 (Homo sapiens, UniProt Q8NHY2); assay: Western blot of COP1 level in HepG2 cells after compound treatment; format: cell-based; conditions: 5 μM, 24 hours
T1 construct: endogenous in cells; host or cells: HepG2
Protocol: as §1, with “62, 65,” for “62,”, “at” for “(50 nM, 100 nM, 200 nM, 500 nM, 1 μM and”, “μM” for “μM for dose dependent assays)”, “cocktail 1” for “cocktail”
as §2

[3] = test system: ubiquitination of ATGL by COP1; assay: Immunoprecipitation assay of ATGL ubiquitination status in HepG2 cells; format: cell-based; conditions: HepG2 cells overexpressing myc-ATGL, HA-Ubiquitin, 5 μM, MG-132, compared with control
Protocol: To this end, an immunoprecipitation assay was performed wherein HepG2 cells overexpressing myc-ATGL were transfected with HA-Ubiquitin and treated with 5 μM of the compounds 5, 62, and 94.MG-132, a proteasomal inhibitor, was added4 hours before harvesting the cells. Immune complexes were pulled down with anti-myc antibody and immunoblot was done using anti-HA antibody. The resultant smears on the blot reflect the ubiquitination status of ATGL.

[4] = Plasma stability assay; format: in vitro ADME; conditions: 1 μM, 37° C.
Protocol: 1 mM Stock of test compound was prepared from 10 mM initial stock solution of compounds by diluting 10 μL of 10 mM stock with 90 μL of DMSO. Then 10 μL of 1 mM stock was diluted with 90 μL of DMSO to give 100 μM concentration. The frozen plasma was thawed at room temperature and centrifuged at 1400 rpm at 4° C., for 15 minutes. Approximately 90% of the clear supernatant fraction was transferred to a separate tube and was used for the assay. Final working stock of 1 μM was prepared by diluting 3 μL of 100 μM with 297 μL of plasma. Plasma containing the test compound was incubated for 120 min at 37° C. in shaker with 500 rpm. 50 μL of aliquot of sample at 0, 15, 30, 60 and 120 minutes were precipitated with 150 μL of acetonitrile containing internal standard and centrifuged at 4000 rpm at 4° C. for 20 minutes. 120 μL of supernatant was diluted with 120 μL of water and analysed by LC-MS/MS.

[5] = Kinetic solubility; format: physicochemical; conditions: pH 7.4 phosphate buffer (PBS), aqueous buffer, kinetic from dmso stock, room temperature, 1.0% DMSO
Protocol: PBS sachet was dissolved in 0.9 L of Milli Q water and pH was adjusted to 7.4. Final volume was made up to 1 L with the water and stored at ambient temperature 21-25° C. […] 4 μL from the 50 mM stock solution were added to deep well plate containing 396 μL of pH 7.4 phosphate buffer, mixed and incubated for 24 hours at room temperature with constant mixing at 300 rpm. The plate was sealed well during the incubation process. After incubation, the samples were centrifuged for 20 min at 4000 rpm. The supernatant was analysed by HPLC-UV. The DMSO content in the sample was 1.0%. The final concentration of the compound in deep well plate was 500 μM.

T1 sequence (Q8NHY2 whole entry): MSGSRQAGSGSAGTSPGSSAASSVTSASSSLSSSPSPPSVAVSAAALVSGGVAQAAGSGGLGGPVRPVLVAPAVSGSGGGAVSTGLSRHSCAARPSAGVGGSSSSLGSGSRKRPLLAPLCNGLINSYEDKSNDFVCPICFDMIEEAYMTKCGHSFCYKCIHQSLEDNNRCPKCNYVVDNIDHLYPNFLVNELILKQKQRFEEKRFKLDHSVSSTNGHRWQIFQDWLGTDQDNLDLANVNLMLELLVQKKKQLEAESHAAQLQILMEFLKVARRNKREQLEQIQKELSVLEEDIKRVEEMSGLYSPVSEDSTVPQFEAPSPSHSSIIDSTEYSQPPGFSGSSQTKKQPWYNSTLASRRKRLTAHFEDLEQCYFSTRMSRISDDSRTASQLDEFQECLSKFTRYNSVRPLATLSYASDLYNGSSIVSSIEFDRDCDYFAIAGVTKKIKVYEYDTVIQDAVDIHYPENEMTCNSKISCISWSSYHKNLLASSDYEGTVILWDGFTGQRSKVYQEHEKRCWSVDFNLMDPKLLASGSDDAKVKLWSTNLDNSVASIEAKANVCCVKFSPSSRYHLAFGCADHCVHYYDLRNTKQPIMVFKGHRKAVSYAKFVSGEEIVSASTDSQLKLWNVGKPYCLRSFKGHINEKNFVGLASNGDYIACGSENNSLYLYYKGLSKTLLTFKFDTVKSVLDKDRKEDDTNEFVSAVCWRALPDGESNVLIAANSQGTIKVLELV

SMILES | ATGL level (Western Blot) [1] | induction of ATGL (Western Blot) [1] | stabilization of COP1 (Western Blot) [2] | ubiquitination status of ATGL (poly-Ubiquitin smear) [3] | Mean % remaining at 2 hrs in human Plasma [4] [%] | solubility kinetic at 24 hours [5] [µg/mL]
COCCn1c(=O)[nH]c2ccc(NC(=O)Nc3cccc(C(C)=O)c3)cc2c1=O [Compound 5, 1-(3-acetylphenyl)-3-(3-(2-methoxyethyl)-2,4-dioxo-1,2,3,4-tetrahydroquinazolin-6-yl)urea] | increased ATGL level | ability to induce ATGL | stabilize the COP1 | stark reduction in the ubiquitination smear | 97.40 | 0.8 (≈ 2.02 µM)
COCCn1c(=O)c2cc(NC(=O)Nc3cccc(C(C)=O)c3)ccc2n(CCN2CCCCC2)c1=O [Compound 62, 1-(3-acetylphenyl)-3-(3-(2-methoxyethyl)-2,4-dioxo-1-(2-(piperidin-1-yl)ethyl)-1,2,3,4-tetrahydroquinazolin-6-yl)urea] | increased ATGL level | ability to induce ATGL | stabilize the COP1 | stark reduction in the ubiquitination smear | 26.18 | 116 (≈ 228 µM)
COCCn1c(=O)c2cc(NC(=O)Nc3cccc(C(C)=O)c3)ccc2n(CCCN2CCOCC2)c1=O [Compound 94, 1-(3-acetylphenyl)-3-(3-(2-methoxyethyl)-1-(3-morpholinopropyl)-2,4-dioxo-1,2,3,4-tetrahydroquinazolin-6-yl)urea] | increased ATGL level | ability to induce ATGL | stabilize the COP1 | no such effect | 51.74 | 89.9 (≈ 172 µM)
